Earlier results as cited in patent US20220312825A1 (priority 2021, published 2022).

Details: free base (non-protonated)

Q: Which pKa value does the source give for `CN1CCCC1c1cccnc1` (stereo not shown) [Free-base nicotine, 3-(1-methyl-2-pyrrolidinyl) pyridine] here?
A: about 8
